Data published in US9150567B2, “Substituted tetrazol-1-yl-phenoxymethyl-thiazol-2-yl-piperidinyl-pyrimidine salts” (CYMABAY THERAPEUTICS, INC., priority 2009, dated 2015).
“And” between values parts separate entries of the source, which are not always exact repeats. Identical values can stand only once. Counter-ions that a name gives are not always drawn. Like-named read-outs stand apart in the source and are kept apart here. Values belong to the molecule of their own block, whether it stands above or below them.

Legend:
[1] = Overnight / elevated RH stress of the crystalline salts; type: physicochemical; conditions: overnight / elevated relative humidity stress
[2] = Systemic exposure and pharmacokinetics after single oral gavage dose of 200 mg/kg in fasted male SD rats; type: in vivo, Sprague Dawley (SD) rats; conditions: for Fold difference in plasma concentration compared to micronized free-base form: 30 hours post-dose; for Fold difference in plasma concentration compared to micronized free-base form / Increase of systemic drug exposure in AUC0-t compared with micro MBX-2982 (free base): male SD rats; for Increase of systemic drug exposure in AUC0-t compared with micro MBX-2982 (free base): equivalent amounts
Method: Two studies were conducted in order to compare the systemic exposure and pharmacokinetics (PK) of microcrystalline MBX-2982 and salt forms of MBX-2982 in fasted male Sprague Dawley (SD) rats following single oral gavage (PO) doses of 200 mg/kg. Four salt foms of MBX-2982 were investigate in the studies. The tested salts were HCl Form I, HCl salt Form II, mesylate salt and the tosylate salt.
Preparation of samples was performed by solvent precipitation of plasma proteins in a 1 mL/well 96-well plate. Standards were prepared by spiking 10 μL of blank plasma with 10 μL of standard solution (acetonitrile containing MBX-2982 at 0.01, 0.02, 0.05, 0.1, 0.2, 0.5, 1, 2, 5, 10, 20, 50 and 100 μg/mL) and 300 μL of 0.1% formic acid in acetonitrile containing 0.2 μg/mL internal standard. Plasma samples were prepared by adding 10 μL of plasma sample, 10 μL of acetonitrile, and 300 μL of 0.2 μg/mL internal standard in 0.1% formic acid in acetonitrile. After addition of the organic solvents, all samples were vortexed briefly and centrifuged at 3600 rpm for 10 minutes. Some of the samples were diluted 1.3 to 2-fold with blank plasma. An aliquot of the supernatant (25 μL) was transfer to a 1 mL/well 96-well plate and mixed with 200 μL water/ACN (50/50, v/v) and injected into the HPLC.
The suspensions for microcrystalline MBX-2982 (free base) and salt forms of MBX-2982 were prepared in 1% carboxymethylcellulose and 2% tween 80 in water (w/w/v).
Five groups of animals were given microcrystalline and salt forms suspension doses of MBX-2982 orally at 200 mg/kg, respectively. Food was withheld the night before dose and returned nine hours after dosing. Blood samples were collected at 0.25, 0.5, 1, 2, 4, 6, 9, 24, 30 and 48 h post dose. MBX-2982 plasma concentration from these samples was analyzed by a non-validated high performance liquid chromatography in conjunction with mass spectrometry (LC-MS/MS) method.
Plasma concentration-time data for individual animals were analyzed using WinNonlin software (Professional, version 5.0.1; Pharsight Corp.). A non-compartmental model (model 200) was used. Peak area ratios of MBX-2982 to internal standard and concentration were fitted to a quadratic equation (Calibration Curve) with 1/x weighting using a quadratic regression program in Analyst version 1.4.2 (Applied Biosystem Inc). The equations were then used to interpolate the concentrations of MBX-2982 in samples from peak area to internal standard ratio.
The following pharmacokinetic parameters were calculated: • 1) Cmax: Maximum (peak) plasma concentration • 2) Tmax: Time at which Cmax occurred • 3) t1/2: Terminal phase half-life • 4) AUC0-t: Area under the concentration-time curve from time 0 to last measurable concentration • 5) AUC0-inf: Area under the concentration-time curve from time 0 extrapolated to infinity

[3] = 0.5 h post dose, fasted male SD rats, PO 200 mg/kg, mean ± SD
[4] = 1 h post dose, fasted male SD rats, PO 200 mg/kg, mean ± SD
[5] = 2 h post dose, fasted male SD rats, PO 200 mg/kg, mean ± SD
[6] = 24 h post dose, fasted male SD rats, PO 200 mg/kg, mean ± SD
[7] = 30 h post dose, fasted male SD rats, PO 200 mg/kg, mean ± SD
[8] = 48 h post dose, fasted male SD rats, PO 200 mg/kg, mean ± SD
[9] = PO 200 mg/kg, listed as HCl form II, hydrochloride
[10] = fasted male SD rats, single PO dose 200 mg/kg, mean ± SD, hydrochloride
[11] = fasted male SD rats, single PO dose 200 mg/kg, mean ± SD

Compound: CCc1cnc(N2CCC(c3nc(COc4ccc(-n5cnnn5)cc4)cs3)CC2)nc1 [HBr salt, 5-ethyl-2-{4-[4-(4-tetrazol-1-yl-phenoxymethyl)-thiazol-2-yl]-piperidin-1-yl}-pyrimidine]
Appearance of the material after RH stress [1]: remained a free flowing powder

Compound: CCc1cnc(N2CCC(c3nc(COc4ccc(-n5cnnn5)cc4)cs3)CC2)nc1 [MBX-2982, 5-ethyl-2-{4-[4-(4-tetrazol-1-yl-phenoxymethyl)-thiazol-2-yl]-piperidin-1-yl}-pyrimidine]
Mean plasma concentration of MBX-2982 [2, 3]: 3.89 ± 0.95 µg/mL
Mean plasma concentration of MBX-2982 [2, 4]: 6.70 ± 1.27 µg/mL
Mean plasma concentration of MBX-2982 [2, 5]: 11.6 ± 1.61 µg/mL
Mean plasma concentration of MBX-2982 [2, 6]: 0.26 µg/mL and 0.26 ± 0.28 µg/mL
Mean plasma concentration of MBX-2982 [2, 7]: 0.08 µg/mL and 0.08 ± 0.06 µg/mL
Mean plasma concentration of MBX-2982 [2, 8]: 0.16 ± 0.30 µg/mL
concentration at 4 h ([2]; male, Sprague-Dawley, rat, plasma, po, 4 h post dose, fasted male SD rats, PO 200 mg/kg, mean ± SD, read-out: Mean plasma concentration of MBX-2982): 15.8 ± 3.74 µg/mL
concentration at 6 h ([2]; male, Sprague-Dawley, rat, plasma, po, 6 h post dose, fasted male SD rats, PO 200 mg/kg, mean ± SD, read-out: Mean plasma concentration of MBX-2982): 15.9 ± 4.94 µg/mL
concentration at 9 h ([2]; male, Sprague-Dawley, rat, plasma, po, 9 h post dose, fasted male SD rats, PO 200 mg/kg, mean ± SD, read-out: Mean plasma concentration of MBX-2982): 15 ± 5.9 µg/mL
half-life ([2]; male, Sprague-Dawley, rat, plasma, po, fasted male SD rats, single PO dose 200 mg/kg, mean ± SD): 3.53 ± 0.7 h
AUC(0-t) ([2]; male, Sprague-Dawley, rat, plasma, po, fasted male SD rats, single PO dose 200 mg/kg, mean ± SD, read-out: AUC0-24): 233 ± 64.8 µg·h/mL
AUC(0-t) ([2]; male, Sprague-Dawley, rat, plasma, po, fasted male SD rats, single PO dose 200 mg/kg, mean ± SD, read-out: AUC0-t): 236 ± 64.6 µg·h/mL
Cmax ([2]; male, Sprague-Dawley, rat, plasma, po, fasted male SD rats, single PO dose 200 mg/kg, mean ± SD, read-out: Cmax): 17.4 ± 4.19 µg/mL
Tmax ([2]; male, Sprague-Dawley, rat, plasma, po, fasted male SD rats, single PO dose 200 mg/kg, mean ± SD, read-out: Tmax): 5.88 ± 1.55 h

Compound: CCc1cnc(N2CCC(c3nc(COc4ccc(-n5cnnn5)cc4)cs3)CC2)nc1 [esylate salt, 5-ethyl-2-{4-[4-(4-tetrazol-1-yl-phenoxymethyl)-thiazol-2-yl]-piperidin-1-yl}-pyrimidine]
Appearance of the material after RH stress [1]: remained a free flowing powder

Compound: CCc1cnc(N2CCC(c3nc(COc4ccc(-n5cnnn5)cc4)cs3)CC2)nc1 [camsylate salt, 5-ethyl-2-{4-[4-(4-tetrazol-1-yl-phenoxymethyl)-thiazol-2-yl]-piperidin-1-yl}-pyrimidine]
Appearance of the material after RH stress [1]: remained a free flowing powder

More lines, now with the values ahead:

Mean plasma concentration of MBX-2982 ([2]; 0.5 h post dose, fasted male SD rats, PO 200 mg/kg, mean ± SD, hydrochloride): 8.06 ± 1.61 µg/mL
Mean plasma concentration of MBX-2982 ([2]; 1 h post dose, fasted male SD rats, PO 200 mg/kg, mean ± SD, hydrochloride): 16.3 ± 2.77 µg/mL
Mean plasma concentration of MBX-2982 ([2]; 2 h post dose, fasted male SD rats, PO 200 mg/kg, mean ± SD, hydrochloride): 23.7 ± 4.22 µg/mL
Mean plasma concentration of MBX-2982 ([2]; 4 h post dose, fasted male SD rats, PO 200 mg/kg, mean ± SD, hydrochloride): 29.2 ± 3.71 µg/mL
Mean plasma concentration of MBX-2982 ([2]; 6 h post dose, fasted male SD rats, PO 200 mg/kg, mean ± SD, hydrochloride): 29.1 ± 8.13 µg/mL
Mean plasma concentration of MBX-2982 ([2]; 9 h post dose, fasted male SD rats, PO 200 mg/kg, mean ± SD, hydrochloride): 23.2 ± 5.70 µg/mL
Mean plasma concentration of MBX-2982 ([2]; 24 h post dose, fasted male SD rats, PO 200 mg/kg, mean ± SD, hydrochloride): 12.02 ± 9.33 µg/mL
Mean plasma concentration of MBX-2982 ([2]; 24 h post dose, fasted male SD rats, PO 200 mg/kg, mean ± SD, listed as HCl form II, hydrochloride): 12.02 µg/mL
Fold difference in plasma concentration compared to micronized free-base form [2, 9]: 186 fold
Mean plasma concentration of MBX-2982 ([2]; 30 h post dose, fasted male SD rats, PO 200 mg/kg, mean ± SD, hydrochloride): 14.9 ± 13.2 µg/mL
Mean plasma concentration of MBX-2982 ([2]; 30 h post dose, fasted male SD rats, PO 200 mg/kg, mean ± SD, listed as HCl form II, hydrochloride): 14.9 µg/mL
Mean plasma concentration of MBX-2982 ([2]; 48 h post dose, fasted male SD rats, PO 200 mg/kg, mean ± SD, hydrochloride): 0.0325 µg/mL
AUC0-24 [2, 10]: 482 ± 69.4 µg·h/mL
AUC0-inf [2, 10]: 469 µg·h/mL
AUC(0-t) [2, 10]: 679 ± 208 µg·h/mL
Cmax [2, 10]: 31.8 ± 5.05 µg/mL
Tmax [2, 10]: 11.5 ± 12.4 h
t1/2 [2, 10]: 2.09 h
Increase of systemic drug exposure in AUC0-t compared with micro MBX-2982 (free base) [2, 9]: 2.9 fold
Compound: CCc1cnc(N2CCC(c3nc(COc4ccc(-n5cnnn5)cc4)cs3)CC2)nc1.Cl [HCl Salt Form II, 5-ethyl-2-{4-[4-(4-tetrazol-1-yl-phenoxymethyl)-thiazol-2-yl]-piperidin-1-yl}-pyrimidine hydrochloride]

Appearance of the material after RH stress [1]: turned tacky
Compound: CCc1cnc(N2CCC(c3nc(COc4ccc(-n5cnnn5)cc4)cs3)CC2)nc1 [sulfate salt, 5-ethyl-2-{4-[4-(4-tetrazol-1-yl-phenoxymethyl)-thiazol-2-yl]-piperidin-1-yl}-pyrimidine]

Mean plasma concentration of MBX-2982 [2, 3]: 10.1 ± 2.45 µg/mL
Mean plasma concentration of MBX-2982 [2, 4]: 13.0 ± 3.33 µg/mL
Mean plasma concentration of MBX-2982 [2, 5]: 19.7 ± 2.55 µg/mL
Mean plasma concentration of MBX-2982 ([2]; 4 h post dose, fasted male SD rats, PO 200 mg/kg, mean ± SD): 23.6 ± 6.90 µg/mL
Mean plasma concentration of MBX-2982 ([2]; 6 h post dose, fasted male SD rats, PO 200 mg/kg, mean ± SD): 20.3 ± 11.2 µg/mL
Mean plasma concentration of MBX-2982 ([2]; 9 h post dose, fasted male SD rats, PO 200 mg/kg, mean ± SD): 18.6 ± 10.55 µg/mL
Mean plasma concentration of MBX-2982 [2, 6]: 4.2 ± 5.51 µg/mL
Mean plasma concentration of MBX-2982 ([2]; 24 h post dose, fasted male SD rats, PO 200 mg/kg, mean ± SD, listed as tosylate): 4.2 µg/mL
Fold difference in plasma concentration compared to micronized free-base form ([2]; PO 200 mg/kg): 40 fold
Mean plasma concentration of MBX-2982 [2, 7]: 3.18 ± 5.88 µg/mL
Mean plasma concentration of MBX-2982 ([2]; 30 h post dose, fasted male SD rats, PO 200 mg/kg, mean ± SD, listed as tosylate): 3.18 µg/mL
Mean plasma concentration of MBX-2982 [2, 8]: 0.02 ± 0.01 µg/mL
AUC0-24 [2, 11]: 342 ± 117 µg·h/mL
AUC0-inf [2, 11]: 393 ± 98.1 µg·h/mL
AUC(0-t) [2, 11]: 392 ± 98.2 µg·h/mL
Cmax [2, 11]: 26.1 ± 7.98 µg/mL
Tmax [2, 11]: 4.00 ± 1.63 h
t1/2 [2, 11]: 3.20 ± 0.88 h
Increase of systemic drug exposure in AUC0-t compared with micro MBX-2982 (free base) ([2]; PO 200 mg/kg): 1.7 fold
Appearance of the material after RH stress [1]: remained a free flowing powder
Compound: CCc1cnc(N2CCC(c3nc(COc4ccc(-n5cnnn5)cc4)cs3)CC2)nc1 [Tosylate Salt, 5-ethyl-2-{4-[4-(4-tetrazol-1-yl-phenoxymethyl)-thiazol-2-yl]-piperidin-1-yl}-pyrimidine]

Appearance of the material after RH stress [1]: remained a free-flowing powder
Compound: CCc1cnc(N2CCC(c3nc(COc4ccc(-n5cnnn5)cc4)cs3)CC2)nc1 [besylate salt, 5-ethyl-2-{4-[4-(4-tetrazol-1-yl-phenoxymethyl)-thiazol-2-yl]-piperidin-1-yl}-pyrimidine]
